From patent publication US12371464B2, “Polypeptides and uses thereof” (MEDIMMUNE LIMITED, priority 2020, dated 2025) come the findings set out here.

Data set [1] can be described thus: Thioflavin T fibrillation assay. The format is physicochemical. Conditions: 1 mg/mL in 25 mM sodium acetate buffer pH 4.0, 37° C., 6 days, orbital shaking; >144 h = no increase. In a few lines: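 Peptides at 1 mg/mL in 25 mM sodium acetate pH 4.0 were mixed with ThT (0.25 mM stock) and held 6 days at 37 °C with intermittent orbital shaking at 500–750 rpm. Fluorescence (ex 444/em 480 nm) was read every 30 min, with buffer baseline correction and 5 replicates. Value: mean time to a detectable fluorescence increase.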

A further data set concerns lean rats. The data set is described as follows: Rat acute food intake study. The format is in vivo, Sprague Dawley rats. To be noted: 20 nmol/kg subcutaneously. As for the experimental part: Male Sprague Dawley rats were obtained from Taconic Denmark, ApS at approximately 7 weeks of age. . . . Rats were implanted with a microchip for identification, housed 4/cage with enrichment, free access to food and water, and allowed one week acclimatisation while non-invasive characterization was performed. Rats were on a 12:12 light:dark cycle that switches at 1 pm:1 am. Food intake was monitored via the HM2 system (Lafayette Instrument) that allows for monitoring in a home cage. As each rat enters an access tunnel to feed, an IR beam is broken, and the implanted microchip is read. Resulting changes to food weight is then assigned to the specific animal. Social order has shown no impact to overall feeding patterns and amounts.
Rats were sorted into groups based on Day-1 body weight and 24-hour accumulated food intake (n=7 per group). On Day 0 rats were weighed, then fasted for 6 hours. Thirty (30) minutes prior to the reintroduction of food, rats were dosed subcutaneously (5 ml/kg) with 20 nmol/kg of test compound or 60 nmol/kg peptide 1 (pramlintide) diluted in an appropriate vehicle, after which food was returned, and lights went out. Automated food intake was monitored for the following 3 days, and rats were weighed once per day.
Food intake per rat was batched into 1-hour intervals and integrated into Gubra's GubraView data management system. Discrete food intake data was exported into MS Excel from which cumulative food intake data was generated. Cumulative food intake data was then transposed into GraphPad Prism (v8.0.1) for analysis of dark period feeding

Numbered stars: 1 amine (or outer) side, 2 acyl side, 3 side chain; on linkers, the order of the positions; unused ones are H or OH. Bridge positions count the residues as written; N and C are the ends. Square brackets hold non-standard residues; d marks the D form. Side chains are listed from the residue outwards. Peptide text beside a SMILES is read from it. * marks the point of attachment. C18 diacid = O=C(O)CCCCCCCCCCCCCCCCC(=O)*; γGlu = O=C(O)[C@H](CCC(=O)[*:2])N[*:1]; αMeF = C[C@](N)(Cc1ccccc1)C(=O)O; Aib = CC(C)(N)C(=O)O

Take `CC[C@H](C)[C@H](NC(=O)[C@@H]1CCCN1C(=O)CNC(=O)[C@](C)(Cc1ccccc1)NC(=O)[C@H](CC(N)=O)NC(=O)[C@H](CC(N)=O)NC(=O)[C@H](CO)NC(=O)[C@H](CO)NC(=O)[C@H](Cc1c[nH]cn1)NC(=O)[C@H](CCCNC(=N)N)NC(=O)[C@H](CC(C)C)NC(=O)[C@H](Cc1ccccc1)NC(=O)[C@H](CCC(=O)O)NC(=O)[C@H](C)NC(=O)[C@H](CC(C)C)NC(=O)[C@H](CCCNC(=N)N)NC(=O)[C@H](CCC(N)=O)NC(=O)[C@@H](NC(=O)[C@H](C)NC(=O)[C@@H]1CSSC[C@H](NC(=O)[C@H](CCCCN)NC(=O)[C@@H](N)CCCCNC(=O)CC[C@H](NC(=O)CCCCCCCCCCCCCCCCC(=O)O)C(=O)O)C(=O)N[C@@H](CC(N)=O)C(=O)N[C@@H]([C@@H](C)O)C(=O)N[C@@H](C)C(=O)N[C@@H]([C@@H](C)O)C(=O)N1)[C@@H](C)O)C(=O)N[C@@H](CC(C)C)C(=O)N1CCC[C@H]1C(=O)N1CCC[C@H]1C(=O)N[C@H](C(=O)N[C@@H](CC(N)=O)C(=O)N[C@H](C(=O)NCC(=O)N[C@@H](CO)C(=O)N[C@@H](CC(N)=O)C(=O)N[C@H](C(=O)N[C@@H](Cc1ccc(O)cc1)C(N)=O)[C@@H](C)O)C(C)C)[C@@H](C)O` [Peptide 12, K(γE-C18diacid)K[CNTATC]ATQRLAEFLRHSSNN(αMePhe)GPILPPTNVGSNTY-amide] (H-K([γGlu-C18 diacid])KCNTATCATQRLAEFLRHSSNN[αMeF]GPILPPTNVGSNTY-NH2; disulfide 3-8; N-terminus assumed): in data set [1], the “Time taken to detect increase in fluorescence intensity” value (from here on “Time taken to detect increase”) is over 144 h. Moreover, the “Cummulative food intake (% vehicle treated intake) At 12 h” value in the data set on lean rats was found to be 9.4 % vehicle treated intake. Besides, the “Cummulative food intake (% vehicle treated intake) At 24 h” value in the data set on lean rats (at 24 h) worked out at 7.5 % vehicle treated intake.
In the case of `CC[C@H](C)[C@H](NC(=O)[C@@H]1CCCN1C(=O)CNC(=O)[C@](C)(Cc1ccccc1)NC(=O)[C@H](CC(N)=O)NC(=O)[C@H](CC(N)=O)NC(=O)[C@H](CO)NC(=O)[C@H](CO)NC(=O)[C@H](Cc1c[nH]cn1)NC(=O)[C@H](CCCNC(=N)N)NC(=O)[C@H](CC(C)C)NC(=O)[C@H](Cc1ccccc1)NC(=O)[C@H](CC(N)=O)NC(=O)[C@H](C)NC(=O)[C@H](CC(C)C)NC(=O)[C@H](CCCNC(=N)N)NC(=O)[C@H](CCC(N)=O)NC(=O)[C@@H](NC(=O)[C@H](C)NC(=O)[C@@H]1CSSC[C@H](NC(=O)[C@@H](N)CCCCNC(=O)CC[C@H](NC(=O)CC[C@H](NC(=O)CCCCCCCCCCCCCCCCC(=O)O)C(=O)O)C(=O)O)C(=O)N[C@@H](CC(N)=O)C(=O)N[C@@H]([C@@H](C)O)C(=O)N[C@@H](C)C(=O)N[C@@H]([C@@H](C)O)C(=O)N1)[C@@H](C)O)C(=O)N[C@@H](CC(C)C)C(=O)N1CCC[C@H]1C(=O)N1CCC[C@H]1C(=O)N[C@H](C(=O)N[C@@H](CC(N)=O)C(=O)N[C@H](C(=O)NCC(=O)N[C@@H](CO)C(=O)N[C@@H](CC(N)=O)C(=O)N[C@H](C(=O)N[C@@H](Cc1ccc(O)cc1)C(N)=O)[C@@H](C)O)C(C)C)[C@@H](C)O` [Peptide 20, K(γE-γE-C18diacid)[CNTATC]ATQRLANFLRHSSNN(αMePhe)GPILPPTNVGSNTY-amide] (H-K([γGlu-γGlu-C18 diacid])CNTATCATQRLANFLRHSSNN[αMeF]GPILPPTNVGSNTY-NH2; disulfide 2-7; N-terminus assumed), the “Time taken to detect increase” value in data set [1] is given as over 144 h. Moreover, in the data set with lean rats, the “Cummulative food intake (% vehicle treated intake) At 12 h” value is given as 27 % vehicle treated intake.
Regarding `CC[C@H](C)[C@H](NC(=O)[C@@H]1CCCN1C(=O)CNC(=O)[C@H](Cc1ccccc1)NC(=O)[C@H](CC(N)=O)NC(=O)[C@H](CC(N)=O)NC(=O)[C@H](CO)NC(=O)[C@H](CO)NC(=O)[C@H](Cc1c[nH]cn1)NC(=O)C(C)(C)NC(=O)[C@H](CC(C)C)NC(=O)[C@H](Cc1ccccc1)NC(=O)[C@H](CC(N)=O)NC(=O)[C@H](C)NC(=O)[C@H](CC(C)C)NC(=O)[C@H](CCCNC(=N)N)NC(=O)[C@H](CCC(N)=O)NC(=O)[C@@H](NC(=O)[C@H](C)NC(=O)[C@@H]1CSSC[C@H](NC(=O)[C@H](CCCCN)NC(=O)[C@@H](N)CCCCNC(=O)CC[C@H](NC(=O)CCCCCCCCCCCCCCCCC(=O)O)C(=O)O)C(=O)N[C@@H](CC(N)=O)C(=O)N[C@@H]([C@@H](C)O)C(=O)N[C@@H](C)C(=O)N[C@@H]([C@@H](C)O)C(=O)N1)[C@@H](C)O)C(=O)N[C@@H](CC(C)C)C(=O)N1CCC[C@H]1C(=O)N1CCC[C@H]1C(=O)N[C@H](C(=O)N[C@@H](CC(N)=O)C(=O)N[C@H](C(=O)NCC(=O)N[C@@H](CO)C(=O)N[C@@H](CC(N)=O)C(=O)N[C@H](C(=O)N[C@@H](Cc1ccc(O)cc1)C(N)=O)[C@@H](C)O)C(C)C)[C@@H](C)O` [Peptide 129] (H-K([γGlu-C18 diacid])KCNTATCATQRLANFL[Aib]HSSNNFGPILPPTNVGSNTY-NH2; disulfide 3-8; N-terminus assumed), the “Time taken to detect increase” value in data set [1] was over 144 h. Further, in the data set with lean rats, the “Cummulative food intake (% vehicle treated intake) At 12 h” value worked out at 29 % vehicle treated intake and the “Cummulative food intake (% vehicle treated intake) At 48 h” value was determined as 51 % vehicle treated intake.
For the compound `CC[C@H](C)[C@H](NC(=O)[C@@H]1CCCN1C(=O)CNC(=O)[C@H](Cc1ccccc1)NC(=O)[C@H](CC(N)=O)NC(=O)C(C)(C)NC(=O)[C@H](CO)NC(=O)[C@H](CO)NC(=O)[C@H](Cc1c[nH]cn1)NC(=O)[C@@H](NC(=O)[C@H](CC(C)C)NC(=O)[C@H](Cc1ccccc1)NC(=O)[C@H](CC(N)=O)NC(=O)[C@H](C)NC(=O)[C@H](CC(C)C)NC(=O)[C@H](CCCNC(=N)N)NC(=O)[C@H](CCC(N)=O)NC(=O)[C@@H](NC(=O)[C@H](C)NC(=O)[C@@H]1CSSC[C@H](NC(=O)[C@H](CCCCN)NC(=O)[C@@H](N)CCCCNC(=O)CC[C@H](NC(=O)CCCCCCCCCCCCCCCCC(=O)O)C(=O)O)C(=O)N[C@@H](CC(N)=O)C(=O)N[C@@H]([C@@H](C)O)C(=O)N[C@@H](C)C(=O)N[C@@H]([C@@H](C)O)C(=O)N1)[C@@H](C)O)C(C)C)C(=O)N[C@@H](CC(C)C)C(=O)N1CCC[C@H]1C(=O)N1CCC[C@H]1C(=O)N[C@H](C(=O)N[C@@H](CC(N)=O)C(=O)N[C@H](C(=O)NCC(=O)N[C@@H](CO)C(=O)N[C@@H](CC(N)=O)C(=O)N[C@H](C(=O)N[C@@H](Cc1ccc(O)cc1)C(N)=O)[C@@H](C)O)C(C)C)[C@@H](C)O` [Peptide 35, K(γE-C18diacid)K[CNTATC]ATQRLANFLVHSS(Aib)NFGPILPPTNVGSNTY-amide] (H-K([γGlu-C18 diacid])KCNTATCATQRLANFLVHSS[Aib]NFGPILPPTNVGSNTY-NH2; disulfide 3-8; N-terminus assumed), in the data set with lean rats, the “Cummulative food intake (% vehicle treated intake) At 48 h” value came to 72 % vehicle treated intake.
With `CC[C@H](C)[C@H](NC(=O)[C@@H]1CCCN1C(=O)CNC(=O)[C@](C)(Cc1ccccc1)NC(=O)[C@H](CC(N)=O)NC(=O)[C@H](CC(N)=O)NC(=O)[C@H](CO)NC(=O)[C@H](CO)NC(=O)[C@H](Cc1c[nH]cn1)NC(=O)[C@H](CCCNC(=N)N)NC(=O)[C@H](CC(C)C)NC(=O)[C@H](Cc1ccccc1)NC(=O)[C@H](CC(N)=O)NC(=O)[C@H](C)NC(=O)[C@H](CC(C)C)NC(=O)[C@H](CCCNC(=N)N)NC(=O)[C@H](CCC(N)=O)NC(=O)[C@@H](NC(=O)[C@H](C)NC(=O)[C@@H]1CSSC[C@H](NC(=O)[C@H](CCCCN)NC(=O)[C@@H](N)CCCCNC(=O)CC[C@H](NC(=O)CCCCCCCCCCCCCCCCC(=O)O)C(=O)O)C(=O)N[C@@H](CC(N)=O)C(=O)N[C@@H]([C@@H](C)O)C(=O)N[C@@H](C)C(=O)N[C@@H]([C@@H](C)O)C(=O)N1)[C@@H](C)O)C(=O)N[C@@H](CC(C)C)C(=O)N1CCC[C@H]1C(=O)N1CCC[C@H]1C(=O)N[C@H](C(=O)N[C@@H](CCC(=O)O)C(=O)N[C@H](C(=O)NCC(=O)N[C@@H](CO)C(=O)N[C@@H](CC(N)=O)C(=O)N[C@H](C(=O)N[C@@H](Cc1ccc(O)cc1)C(N)=O)[C@@H](C)O)C(C)C)[C@@H](C)O` [Peptide 15, K(γE-C18diacid)K[CNTATC]ATQRLANFLRHSSNN(αMePhe)GPILPPTEVGSNTY-amide] (H-K([γGlu-C18 diacid])KCNTATCATQRLANFLRHSSNN[αMeF]GPILPPTEVGSNTY-NH2; disulfide 3-8; N-terminus assumed), in data set [1], the “Time taken to detect increase” value was over 144 h. Further, the “Cummulative food intake (% vehicle treated intake) At 48 h” value in the data set with lean rats was found to be 51 % vehicle treated intake.
